# Assay results from US20210032253A1, “PYRAZOLO[1,5-A][1,3,5]TRIAZINE-2-AMINE DERIVATIVE, PREPARATION METHOD THEREFOR AND MEDICAL USE THEREOF” (JIANGSU HENGRUI MEDICINE CO., LTD., priority 2018, published 2021).
# Experiments:
# Type in all cases: cell-based
# [1] = molecular target: T1, adenosine A2a receptor (A2aR) (Homo sapiens, UniProt P29274); test: Inhibition of adenosine A2a receptor cAMP signaling pathway in CHO-K1/A2aR cells (HTRF cAMP dynamic 2 kit); settings: Table 1, 20 nM ethylcarbazole
# T1 construct: expressed in transfected cells; host or cells: CHO-K1
# T1 sequence (P29274 whole entry): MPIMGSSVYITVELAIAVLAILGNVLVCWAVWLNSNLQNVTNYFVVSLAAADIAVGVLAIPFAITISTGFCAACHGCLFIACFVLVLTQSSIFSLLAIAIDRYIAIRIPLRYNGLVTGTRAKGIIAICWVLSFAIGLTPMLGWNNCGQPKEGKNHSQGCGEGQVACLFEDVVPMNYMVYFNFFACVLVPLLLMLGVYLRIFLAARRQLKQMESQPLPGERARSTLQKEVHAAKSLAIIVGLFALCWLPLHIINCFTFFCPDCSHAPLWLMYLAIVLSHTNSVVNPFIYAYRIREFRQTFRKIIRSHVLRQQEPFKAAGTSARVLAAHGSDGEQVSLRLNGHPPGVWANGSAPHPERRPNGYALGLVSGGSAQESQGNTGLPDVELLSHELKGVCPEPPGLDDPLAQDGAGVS
# Source text: (§1) Test Example 1. Determination of the inhibitory activities of the compounds of the present disclosure on the adenosine A2a receptor (A2aR) cAMP signaling pathway, the adenosine A1 receptor (A1R) cAMP signaling pathway and the adenosine A3 receptor (A3R) cAMP signaling pathway.
# (§2) The inhibitory activities of the compounds of the present disclosure on the adenosine A2a receptor (A2aR) cAMP signaling pathway, the adenosine A1 receptor cAMP signaling pathway and the adenosine A3 receptor cAMP signaling pathway were determined by the following methods. The experimental method is briefly described as follows:
# CHO-K1/A2aR cells were cultured in DMEM/F12 medium containing 10% fetal bovine serum and 800 μg/mL Zeocin™. The cells were digested with the cell dissociation buffer during the experiment. The cells were resuspended in the HBSS buffer containing 20 mM HEPES and 0.1% bovine serum albumin and counted, and the cell density was adjusted to 10^6 cells/mL. In 384-well plates, each well was added with 5 μL of the cell suspension, and 2.5 µL of test compounds (4× concentration) formulated with the HBSS buffer containing 20 mM HEPES, 0.1% bovine serum albumin, 54 μM rolipram and 2.7 U/mL adenosine deaminase, and the plates were incubated at room temperature for 30 minutes. Each well was then added with 2.5 μL of ethylcarbazole (4× concentration) formulated with the balanced salt buffer containing 20 mM HEPES, 0.1% bovine serum albumin, 54 μM rolipram and 2.7 U/mL adenosine deaminase, and the plates were incubated at room temperature for 30 minutes. The final concentrations of the compounds were: 10000, 2000, 400, 80, 16, 3.2, 0.64, 0.128, 0.0256, 0.00512, and 0.001024 nM. The final concentration of ethylcarbazole was 20 nM. Intracellular cAMP concentration was determined with cAMP dynamic 2 kits. cAMP-d2 and Anti-cAMP—Eu-Cryptate were diluted respectively with the cAMP lysis buffer at a ratio of 1:4. Each well was added with 5 μL of the diluted cAMP-d2, followed by addition of 5 μL of the diluted Anti-cAMP—Eu-Cryptate, and the plates were incubated at room temperature in the dark for 1 hour. The HTRF signal values were read by the PHERAstar multi-function microplate reader.
# [2] = molecular target: T2, adenosine A1 receptor (A1R) (Homo sapiens, UniProt P30542); test: Inhibition of adenosine A1 receptor cAMP signaling pathway in CHO-K1/A1R cells (HTRF cAMP dynamic 2 kit); settings: Table 2; for IC50: CHO-K1/A1R cells, cAMP, 10 μM forskolin, 10 nM CPA; for IC50 ratio (A1R/A2aR): selectivity A1R over A2aR
# T2 construct: expressed in transfected cells; host or cells: CHO-K1
# T2 sequence (P30542 1-326): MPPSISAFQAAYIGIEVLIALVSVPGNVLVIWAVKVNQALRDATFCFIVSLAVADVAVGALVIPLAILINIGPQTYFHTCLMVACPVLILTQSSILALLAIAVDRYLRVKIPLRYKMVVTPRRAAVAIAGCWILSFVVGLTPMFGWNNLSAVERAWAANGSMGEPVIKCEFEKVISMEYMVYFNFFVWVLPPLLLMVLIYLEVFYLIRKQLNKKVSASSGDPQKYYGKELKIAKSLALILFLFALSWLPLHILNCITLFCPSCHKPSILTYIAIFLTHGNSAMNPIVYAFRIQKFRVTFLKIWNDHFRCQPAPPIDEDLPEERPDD
# Source text: as §1, §2
# CHO-K1/A1R cells were cultured in DMEMIF12 medium containing 10% fetal bovine serum and 1 mg/mL G418. The cells were digested with the cell dissociation buffer during the experiment. The cells were then resuspended in the HBSS buffer containing 20 mM HEPES and 0.1% bovine serum albumin and counted, and the cell density was adjusted to 5×10^5 cells/mL. In 384-well plates, each well was added with 12.5 μL of the cell suspension, and 6.25 μL of the test compounds (4× concentration) formulated with the HBSS buffer containing 20 mM HEPES, 0.1% bovine serum albumin, 54 μM rolipram and 2.7 U/mL adenosine deaminase, and the plates were incubated at room temperature for 30 minutes. Each well was then added with 6.25 μL of forskolin and N6-cyclopentyladenosine (4× concentration) formulated with the HBSS buffer containing 20 mM HEPES, 0.1% bovine serum albumin, 54 μM rolipram and 2.7 U/mL adenosine deaminase, and the plates were incubated at room temperature for 30 minutes. The final concentrations of the compounds were: 100000, 10000, 1000, 100, 10, 1, 0.1 and 0 nM. The final concentration of forskolin was 10 μM. The final concentration of CPA was 10 nM. Intracellular cAMP concentration was determined with cAMP dynamic 2 kits. cAMP-d2 and Anti-cAMP—Eu-Cryptate were diluted respectively with the cAMP lysis buffer at a ratio of 1:4. Each well was added with 12.5 μL of the diluted cAMP-d2, followed by addition of 12.5 μL of the diluted Anti-cAMP—Eu-Cryptate, and the plates were incubated at room temperature in the dark for 1 hour. The HTRF signal values were read by the PHERAstar multi-function microplate reader.
# [3] = molecular target: T3, adenosine A3 receptor (A3R) (Homo sapiens, UniProt P0DMS8); test: Inhibition of adenosine A3 receptor cAMP signaling pathway in CHO-K1/A3R cells (HTRF cAMP dynamic 2 kit); settings: Table 3; for IC50: CHO-K1/A3R cells, cAMP, 10 μM forskolin, 5 nM 2Cl-IB-MECA; for IC50 ratio (A3R/A2aR): selectivity A3R over A2aR
# T3 construct: expressed in transfected cells; host or cells: CHO-K1
# T3 sequence (P0DMS8 1-318): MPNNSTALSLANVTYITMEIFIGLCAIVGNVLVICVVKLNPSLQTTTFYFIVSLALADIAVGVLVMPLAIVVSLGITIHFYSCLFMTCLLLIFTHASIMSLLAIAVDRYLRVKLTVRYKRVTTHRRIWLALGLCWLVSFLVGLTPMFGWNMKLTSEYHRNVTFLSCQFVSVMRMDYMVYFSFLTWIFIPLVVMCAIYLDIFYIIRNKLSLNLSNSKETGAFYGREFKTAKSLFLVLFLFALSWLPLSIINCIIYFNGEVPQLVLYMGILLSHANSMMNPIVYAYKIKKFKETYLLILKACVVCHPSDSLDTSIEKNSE
# Source text: as §1, §2
# CHO-K1/A3R cells were cultured in DMEMIF12 medium containing 10% fetal bovine serum and 10 μg/mL puromycin. The cells were digested with the cell dissociation buffer during the experiment. The cells were resuspended in the HBSS buffer containing 20 mM HEPES and 0.1% bovine serum albumin and counted, and the cell density was adjusted to 5×10^5 cells/mL. In 384-well plates, each well was added with 12.5 μL of the cell suspension, and 6.25 μL of the test compounds (4× concentration) formulated with the HBSS buffer containing 20 mM HEPES, 0.1% bovine serum albumin, 54 μM rolipram and 2.7 U/mL adenosine deaminase, and the plates were incubated at room temperature for 30 minutes. Each well was then added with 6.25 μL of forskolin and 2Cl-IB-MECA (4× concentration) formulated with the HBSS buffer containing 20 mM HEPES, 0.1% bovine serum albumin, […] rolipram and 2.7 U/mL adenosine deaminase, and the plates were incubated at room temperature for 30 minutes. The final concentrations of the compounds were: 100000, 10000, 1000, 100, 10, 1, 0.1 and 0 nM. The final concentration of forskolin was 10 μM. The final concentration of 2Cl-IB-MECA was 5 nM. Intracellular cAMP concentration was determined with cAMP dynamic 2 kits. cAMP-d2 and Anti-cAMP—Eu-Cryptate were diluted respectively with the cAMP lysis buffer at a ratio of 1:4. Each well was added with 12.5 μL of the diluted cAMP-d2, followed by addition of 12.5 μL of the diluted Anti-cAMP—Eu-Cryptate, and the plates were incubated at room temperature in the dark for 1 hour. The HTRF signal values were read by the PHERAstar multi-function microplate reader. IC50 values for the inhibitory activities of the compounds were calculated by Graphpad Prism software, and are shown in Table 3.
SMILES,IC50 [1],IC50 [2],IC50 ratio (A1R/A2aR) [2],IC50 [3],IC50 ratio (A3R/A2aR) [3]
"Cc1ccc(-c2nc(N)nc3c(Cc4cccc(CN5CC6COCC6C5)n4)cnn23)o1 (stereo not drawn) [Example 9, 4-(5-Methylfuran-2-yl)-8-((6-((tetrahydro-1H-furo[3,4-c]pyrrol-5(3H)-yl)methyl)pyridin-2-yl)methyl)pyrazolo[1,5-a][1,3,5]triazin-2-amine]",1.64 nM,483 nM,294^,3370 nM,>10^3
"Nc1nc(-c2ccco2)n2ncc(Cc3ccccc3F)c2n1 [Example 10, 8-(2-Fluorobenzyl)-4-(furan-2-yl)pyrazolo[1,5-a][1,3,5]triazin-2-amine]",1.71 nM,147 nM,86^,358 nM,209^
"COCc1cccc(Cc2cnn3c(-c4ccc(C)o4)nc(N)nc23)n1 [Example 13, 8-((6-(Methoxymethyl)pyridin-2-yl)methyl)-4-(5-methylfuran-2-yl)pyrazolo[1,5-a][1,3,5]triazin-2-amine]",1.7 nM,1230 nM,725^,5500 nM,>10^3
"Cc1ccc(-c2nc(N)nc3c(Cc4cccc(COCCF)n4)cnn23)o1 [Example 14, 8-((6-((2-Fluoroethoxy)methyl)pyridin-2-yl)methyl)-4-(5-methylfuran-2-yl)pyrazolo[1,5-a][1,3,5]triazin-2-amine]",0.68 nM,293 nM,431^,1390 nM,>10^3
"Cc1ccc(-c2nc(N)nc3c(Cc4cccc(CO[C@H]5CCN(C)C5)n4)cnn23)o1 [Example 15, (S)-4-(5-Methylfuran-2-yl)-8-((6-(((1-methylpyrrolidin-3-yl)oxy)methyl)pyridin-2-yl)methyl) pyrazolo[1,5-a][1,3,5]triazin-2-amine]",1.83 nM,165 nM,90^,8970 nM,>10^3
"Cc1ccc(-c2nc(N)nc3c(Nc4cccc(CO[C@@H]5CCOC5)n4)cnn23)o1 [Example 21, (R)-4-(5-Methylfuran-2-yl)-N^8-(6-(((tetrahydrofuran-3-yl)oxy)methyl)pyridin-2-yl)pyrazolo[1,5-a][1,3,5]triazine-2,8-diamine]",0.4 nM,609 nM,>10^3,1700 nM,>10^3
"Cc1ccc(-c2nc(N)nc3c(Cc4cccc(COC5CCCC5)n4)cnn23)o1 [Example 22, 8-((6-((Cyclopentyloxy)methyl)pyridin-2-yl)methyl)-4-(5-methylfuran-2-yl)pyrazolo[1,5-a][1,3,5]triazin-2-amine]",0.57 nM,303 nM,532^,1050 nM,>10^3
"Cc1ccc(-c2nc(N)nc3c(Cc4cccc(CO[C@H]5CCOC5)c4)cnn23)o1 [Example 24, (S)-4-(5-Methylfuran-2-yl)-8-(3-(((tetrahydrofuran-3-yl)oxy)methyl)benzyl)pyrazolo[1,5-a][1,3,5]triazin-2-amine]",1.2 nM,2020 nM,>10^3,2040 nM,>10^3
"Cc1ccc(-c2nc(N)nc3c(Nc4cccc(CO[C@H]5CCOC5)c4)cnn23)o1 [Example 25, (S)-4-(5-Methylfuran-2-yl)-N^8-(3-(((tetrahydrofuran-3-yl)oxy)methyl)phenyl)pyrazolo[1,5-a][1,3,5]triazine-2,8-diamine]",1.64 nM,2040 nM,>10^3,8150 nM,>10^3
"Cc1ccc(-c2nc(N)nc3c(Nc4cccc(CO[C@H]5CCOC5)c4F)cnn23)o1 [Example 26, (S)—N^8-(2-fluoro-3-(((tetrahydrofuran-3-yl)oxy)methyl)phenyl)-4-(5-methylfuran-2-yl)pyrazolo[1,5-a][1,3,5]triazine-2,8-diamine]",1.66 nM,1210 nM,731^,5300 nM,>10^3
"Cc1ccc(-c2nc(N)nc3c(Nc4cccc(CN5CCOCC5)n4)cnn23)o1 [Example 27, 4-(5-Methylfuran-2-yl)-N^8-(6-(morpholinomethyl)pyridin-2-yl)pyrazolo[1,5-a][1,3,5]triazine-2,8-diamine]",1.9 nM,286 nM,150^,977 nM,514^
"Cc1ccc(-c2nc(N)nc3c(Sc4cccc(CO[C@H]5CCOC5)n4)cnn23)o1 [Example 28, (S)-4-(5-Methylfuran-2-yl)-8-((6-(((tetrahydrofuran-3-yl)oxy)methyl)pyridin-2-yl)thio)pyrazolo[1,5-a][1,3,5]triazin-2-amine]",2.13 nM,595 nM,279^,1150 nM,540^
